This is an account of results in ChEMBL document CHEMBL1629480, “Molecular docking and QSAR study on steroidal compounds as aromatase inhibitors” (Eur J Med Chem, 2010).

The data set addresses T1, Aromatase (Homo sapiens, UniProt P11511).
T1 sequence (P11511 whole entry): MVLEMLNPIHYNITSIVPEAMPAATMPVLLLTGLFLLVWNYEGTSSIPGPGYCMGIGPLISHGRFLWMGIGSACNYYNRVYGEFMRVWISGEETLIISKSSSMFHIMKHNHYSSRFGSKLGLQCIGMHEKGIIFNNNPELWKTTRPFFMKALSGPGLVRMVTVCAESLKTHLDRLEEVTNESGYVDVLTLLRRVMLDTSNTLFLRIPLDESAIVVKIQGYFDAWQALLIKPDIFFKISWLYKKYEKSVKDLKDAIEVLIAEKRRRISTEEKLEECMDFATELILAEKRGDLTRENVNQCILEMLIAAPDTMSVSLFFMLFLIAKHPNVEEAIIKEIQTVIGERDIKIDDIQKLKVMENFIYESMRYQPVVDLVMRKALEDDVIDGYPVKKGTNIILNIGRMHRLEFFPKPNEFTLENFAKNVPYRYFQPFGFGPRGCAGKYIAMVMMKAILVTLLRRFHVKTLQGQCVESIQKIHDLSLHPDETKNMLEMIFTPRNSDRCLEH
The experiment in a line: Inhibition of human placental aromatase. The settings on record: for pIC50: human.

As to `C[C@]12CC[C@H]3[C@@H](CCC4=CCCC[C@@]43CO)[C@@H]1CCC2=O`, the pIC50 is reported as 1.31 uM.
In turn, `C[C@]12CC[C@H]3O[C@H]3[C@@H]1CC[C@@H]1[C@@H]2CC[C@]2(C)C(=O)CC[C@@H]12` had a pIC50 of 0.839 uM.
By IC50 is commonly meant the midpoint of a concentration-inhibition curve. A higher IC50 goes with weaker potency. As for `C[C@H]1CCC[C@@]2(C)C1=CC[C@@H]1[C@@H]2CC[C@]2(C)C(=O)CC[C@@H]12`, it took 1800 nM to reach half-maximal inhibition (IC50) and the pIC50 is on record as -0.255 uM.
`C[C@]12CC[C@@H](O)C(=O)[C@@H]1CC[C@@H]1[C@@H]2CC[C@]2(C)C(=O)CC[C@@H]12`: the pIC50 was 0.174 uM.
For `CC(=O)OC1=C2CC[C@@H]3[C@H](CC[C@]4(C)C(=O)CC[C@@H]34)[C@@]2(CO)CCC1`, the IC50 is 3600 nM and the pIC50 is listed as -0.556 uM.
In turn, `C[C@]12CC[C@H]3[C@@H](CC=C4CCCC[C@]43C)[C@@H]1CCC2=O` registered a half-maximal inhibitory concentration (IC50) of 660 nM.
With `CCCCCC(=O)OC1=C2CC[C@@H]3[C@H](CC[C@]4(C)C(=O)CC[C@@H]34)[C@@]2(C)CCC1`, half-maximal inhibition (IC50) required 1800 nM and the pIC50 was -0.255 uM.
`C[C@]12CC[C@H]3[C@@H](C[C@@H](O)C4=CCCC[C@@]43CO)[C@@H]1CCC2=O` had a pIC50 of 0.027 uM.
For `CCCC(=O)OC1=C2CC[C@@H]3[C@H](CC[C@]4(C)C(=O)CC[C@@H]34)[C@@]2(C)CCC1`, inhibition was half-maximal at 1500 nM (IC50) and the pIC50 is recorded as -0.176 uM.
On to `C[C@]12CC[C@H]3[C@@H](C[C@H](O)C4=CCCC[C@@]43CO)[C@@H]1CCC2=O`, for which the IC50 was found to be 1000 nM and the pIC50 is -0.146 uM.
On the same counts, the results for `C[C@]12CCC(=O)C(O)=C1CC[C@@H]1[C@@H]2CC[C@]2(C)OC(=O)CC[C@@H]12` are 1850 nM and -0.267 uM.
For `CCC[C@H]1CCC[C@@]2(C)C1=CC[C@@H]1[C@@H]2CC[C@]2(C)C(=O)CC[C@@H]12` the same measures were 5500 nM and -0.74 uM.
In the case of `CC(=O)OC1CCC[C@@]2(C)C1=CC[C@@H]1[C@@H]2CC[C@]2(C)C(=O)CC[C@@H]12` (stereo partly drawn), the pIC50 stood at 0 uM.
Still for that read-out and setting: to `C[C@]12CCC(=O)C(O)=C1CC[C@@H]1[C@@H]2CC[C@]2(C)C(=O)CC[C@@H]12` [FORMESTANE] belongs 1.377 uM.
Consider `CC(=O)OC1=C2CC[C@@H]3[C@H](CC[C@]4(C)C(=O)CC[C@@H]34)[C@@]2(C)CCC1`, for which the IC50 was determined as 660 nM and the pIC50 is reported as 0.18 uM.
On the same counts, the results for `CC[C@H]1CCC[C@@]2(C)C1=CC[C@@H]1[C@@H]2CC[C@]2(C)C(=O)CC[C@@H]12` are 4500 nM and -0.653 uM.
On the same counts, the results for `C[C@]12CCC=C[C@@H]1CC[C@@H]1[C@@H]2CC[C@]2(C)[C@@H](O)CC[C@@H]12` are 30000 nM and -1.477 uM.
Turning to `CC(=O)OC1CCC[C@@]2(CO)C1=CC[C@@H]1[C@@H]2CC[C@]2(C)C(=O)CC[C@@H]12` (stereo partly drawn), the half-maximal inhibitory concentration (IC50) is 11000 nM and the pIC50 is listed as -1.041 uM.
For `C[C@]12CCCC(OC(=O)c3ccccc3)=C1CC[C@@H]1[C@@H]2CC[C@]2(C)C(=O)CC[C@@H]12` the same measures were 640 nM and 0.194 uM.
Consider `C[C@]12CCCC(=O)[C@@H]1CC[C@@H]1[C@@H]2CC[C@]2(C)C(=O)CC[C@@H]12`, for which half-maximal inhibition (IC50) was put at 2400 nM and the pIC50 was -0.38 uM.
For `C[C@]12CC[C@H]3O[C@H]3[C@@H]1CC[C@@H]1[C@@H]2CC[C@]2(C)[C@@H](O)CC[C@@H]12` the same measures were 6500 nM and -0.813 uM.
With `CO[C@H]1CCC[C@@]2(CO)C1=CC[C@@H]1[C@@H]2CC[C@]2(C)C(=O)CC[C@@H]12`, the pIC50 is -2.176 uM.
`C[C@]12CCC=C[C@@H]1CC[C@@H]1[C@@H]2CC[C@]2(C)C(=O)CC[C@@H]12` gave an IC50 of 225 nM and a pIC50 of 0.648 uM.
